Reference: US20060069132A1, “Azolecarboxamide herbicides” (priority 2004, published 2006)

Tests used:
rice = test: Test C flooded paddy test; assay type: in vivo, Oryza sativa
Summary of the method: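 Plants were grown to the 1- to 4-leaf stage (2–18 cm) and then treated postemergence, or grown to the 2-leaf stage for the flooded paddy test. They were held in a greenhouse for 12 to 14 days and then scored by eye against controls, where 0 is no effect and 100 is complete control.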

soybean = test: Test C pre-/postemergence herbicide test; assay type: in vivo, Glycine max; conditions: preemergence
Summary of the method: (§1)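 Pre- and postemergence application, solvent/surfactant formulation; post at 1- to 4-leaf stage (2–18 cm). Greenhouse 12–14 d. Visual rating vs controls, 0 = no effect, 100 = complete control.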

[1] = system: smallflower umbrella sedge; test: Test C flooded paddy test; assay type: in vivo, Cyperus difformis
velvetleaf [2] = test: Test C pre-/postemergence herbicide test; assay type: in vivo, Abutilon theophrasti; conditions: preemergence
Summary of the method: as §1

corn = test: Test C pre-/postemergence herbicide test; assay type: in vivo, Zea mays; conditions: preemergence
Summary of the method: as §1

goosegrass = test: Test C pre-/postemergence herbicide test; assay type: in vivo, Eleusine indica; conditions: preemergence
Summary of the method: as §1

barnyardgrass = test: Test A pre-/postemergence herbicide test; assay type: in vivo, Echinochloa crus-galli
Summary of the method: (§2)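 Visual injury rating on a 0–100 scale (0 no effect, 100 complete control) versus untreated controls, about ten days after treatment in greenhouse. Pre: directed soil spray onto seeded sandy loam. Post: spray to runoff on plants 2–10 cm tall at one- to two-leaf stage.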

johnsongrass = test: Test C pre-/postemergence herbicide test; assay type: in vivo, Sorghum halepense; conditions: preemergence
Summary of the method: as §1

ducksalad = test: Test C flooded paddy test; assay type: in vivo, Heteranthera limosa
cocklebur = test: Test C pre-/postemergence herbicide test; assay type: in vivo, Xanthium strumarium; conditions: for Plant response rating, Cocklebur: preemergence
Summary of the method: as §1

morningglory = test: Test A pre-/postemergence herbicide test; assay type: in vivo, Ipomoea spp.
Summary of the method: as §2

bermudagrass = test: Test C pre-/postemergence herbicide test; assay type: in vivo, Cynodon dactylon; conditions: for Plant response rating, Bermudagrass: preemergence
Summary of the method: as §1

velvetleaf [3] = test: Test A pre-/postemergence herbicide test; assay type: in vivo, Abutilon theophrasti
Summary of the method: as §2

[4] = 62 g ai/ha, scale 0 to 100 (0 no effect, 100 complete control)
[5] = 125 g ai/ha, scale 0 to 100 (0 no effect, 100 complete control)
[6] = 250 g ai/ha, scale of 0 to 100, 0 is no effect, 100 is complete control
[7] = 500 g ai/ha, visual rating after 12 to 14 days, scale 0 to 100 (0 no effect, 100 complete control)
[8] = 500 g ai/ha, scale 0 to 100 (0 no effect, 100 complete control), visual, 12 to 14 days
[9] = 125 g ai/ha, scale 0 (no effect) to 100 (complete control), visual, 12 to 14 days
[10] = Postemergence, 500 g ai/ha, 0 to 100 scale, 0 no effect, 100 complete control
[11] = Postemergence, 2000 g ai/ha, 0 to 100 scale, 0 no effect, 100 complete control
[12] = Preemergence, 2000 g ai/ha, visual rating, 0 to 100 scale (0 no effect, 100 complete control)
[13] = preemergence, 500 g ai/ha, visual injury, 0 to 100 scale (0 no effect, 100 complete control)
[14] = Preemergence, 500 g ai/ha, scale 0 to 100, 0 no effect, 100 complete control

CCc1nc(C(C)(C)C)sc1C(=O)Nc1cccc(C(=O)NCC2CC2)n1 [Compound 215]
100: Plant response rating, Velvetleaf (velvetleaf [2]; [8]) | Plant response rating, Goosegrass (goosegrass; [8]) | Bermudagrass plant response rating (bermudagrass; [14])
40: Sedge, Umbrella plant response rating [1, 4] | Sedge, Umbrella plant response rating [1, 5] | Plant response rating, Velvetleaf (velvetleaf [2]; 250 g ai/ha, scale 0-100) | Plant response rating, Goosegrass (goosegrass; [9]) | Ducksalad plant response rating (ducksalad; [4]) | Ducksalad plant response rating (ducksalad; [5]) | Plant response rating, Bermudagrass (bermudagrass; 62 g ai/ha, scale 0 to 100, 0 no effect, 100 complete control)
50: Plant response rating, Corn (corn; [8]) | Plant response rating, Johnsongrass (johnsongrass; 250 g ai/ha, scale 0-100)
25: Plant response rating, Barnyardgrass (barnyardgrass; [11]) | Morningglory plant response rating (morningglory; [10])
15: Barnyardgrass plant response rating (barnyardgrass; [13]) | Velvetleaf plant response rating (velvetleaf [3]; [13])
90: Plant response rating, Sedge, Umbrella [1, 7]
85: Plant response rating, Johnsongrass (johnsongrass; [8]) | Plant response rating, Bermudagrass (bermudagrass; 250 g ai/ha, scale 0-100)
0: Rice plant response rating (rice; [4]) | Rice plant response rating (rice; [5]) | Rice plant response rating (rice; [6]) | Plant response rating, Soybean (soybean; 62 g ai/ha, scale 0 to 100) | Plant response rating, Soybean (soybean; 250 g ai/ha, scale 0-100) | Plant response rating, Soybean (soybean; [8]) | Plant response rating, Velvetleaf (velvetleaf [2]; 62 g ai/ha, scale 0 to 100) | Plant response rating, Corn (corn; 62 g ai/ha, scale 0 to 100) | Plant response rating, Goosegrass (goosegrass; 62 g ai/ha, scale 0 to 100) | Barnyardgrass plant response rating (barnyardgrass; [10]) | Plant response rating, Johnsongrass (johnsongrass; 62 g ai/ha, scale 0 to 100) | Plant response rating, Cocklebur (cocklebur; 62 g ai/ha, scale 0 to 100) | Plant response rating, Cocklebur (cocklebur; [9]) | Plant response rating, Cocklebur (cocklebur; 250 g ai/ha, scale 0-100)
20: Plant response rating, Rice (rice; [7]) | Plant response rating, Corn (corn; [9]) | Plant response rating, Corn (corn; 250 g ai/ha, scale 0-100) | Plant response rating, Johnsongrass (johnsongrass; [9]) | Morningglory plant response rating (morningglory; [13])
35: Barnyardgrass plant response rating (barnyardgrass; [12]) | Plant response rating, Morningglory (morningglory; [11])
55: Morningglory plant response rating (morningglory; [12])
60: Ducksalad plant response rating (ducksalad; [6]) | Cocklebur plant response rating (cocklebur; [14])
70: Sedge, Umbrella plant response rating [1, 6] | Plant response rating, Bermudagrass (bermudagrass; [9])
80: Plant response rating, Goosegrass (goosegrass; 250 g ai/ha, scale 0-100) | Plant response rating, Ducksalad (ducksalad; [7])
30: Velvetleaf plant response rating (velvetleaf [3]; [10]) | Plant response rating, Velvetleaf (velvetleaf [3]; [11]) | Velvetleaf plant response rating (velvetleaf [3]; [12])
